The values that follow come from patent US8455518B2, “Method of treating skin with microRNA modulators” (Avon Products, Inc., priority 2010, dated 2013).

Holding throughout (assay type): cell-based
Test [1] relates to miR-29a. The test is described as follows: Inhibition of miR-29a by specific compounds in human dermal fibroblasts, qRT-PCR. The settings on record: 0.0005% compound, 48 hours; for inhibition of miR-29a relative to vehicle treated cells (in words): p<0.05; for miR-29a (%): serum-free, relative to vehicle treated cells. On the procedure: (§1) The expression of miR-29a and miR29b in young versus old skin fibroblasts was examined by qRT-PCR.
(§2) Human dermal fibroblasts were grown in the absence of serum overnight, followed by treatment with 0.0005% of test compounds in the absence of serum for 48 hours. Cells were analyzed for expression levels of miR-29a and miR-29b by qRT-PCR as described in Examples 1 and 2. […] All values are statistically significant at p<0.05.

For test [2], the system named is miR-29b. The test is described as follows: Inhibition of miR-29b by specific compounds in human dermal fibroblasts, qRT-PCR. Conditions: 0.0005% compound, 48 hours; for inhibition of miR-29b relative to vehicle treated cells (in words): p<0.05; for miR-29b (%): serum-free, relative to vehicle treated cells. On the procedure:
as §1, §2
(Quantitative PCR measures a nucleic acid by following its amplification.)

In test [3] the test system is collagen. The test is described as follows: Collagen protein levels by ELISA in compound-treated human dermal fibroblasts. Conditions: 0.0005% compound, 48 hours; for collagen protein levels as measured by ELISA (in words): p<0.05; for Collagen (%): serum-free, collagen protein by ELISA.

Consider `CCOCCCNC(=O)c1cc(NC(=O)/C=C/c2ccccc2)ccc1N1CCC(Cc2ccccc2)CC1` [Compound 2, 2-(4-benzylpiperidin-1-yl)-N-(3-ethoxypropyl)-5-[(2E)-3-phenylprop-2-enamido]-benzamide], for which, in test [1], the “inhibition of miR-29a relative to vehicle treated cells (in words)” value is listed as “significant inhibition” and the “miR-29a (%)” value is given as −33.67%. In test [2], the “inhibition of miR-29b relative to vehicle treated cells (in words)” value is “significant inhibition” and the “miR-29b (%)” value is listed as −61.53%. Besides, in test [3], the “collagen protein levels as measured by ELISA (in words)” value is on record as “increased collagen protein levels” and the “Collagen (%)” value came to 30%.
As for `CC(C)CN(Cc1ccc(OS(C)(=O)=O)cc1)S(=O)(=O)c1ccccc1` [Compound 1, N-(2-methylpropyl)-N-[[4-[(methylsulfonyl)oxy]phenyl]methyl]-benzenesulfonamide], in test [1], the “inhibition of miR-29a relative to vehicle treated cells (in words)” value is “significant inhibition” and the “miR-29a (%)” value is recorded as −61.57%. Besides, in test [2], the “inhibition of miR-29b relative to vehicle treated cells (in words)” value is reported as “significant inhibition” and the “miR-29b (%)” value is on record as −85.00%. Further, in test [3], the “collagen protein levels as measured by ELISA (in words)” value is listed as “increased collagen protein levels” and the “Collagen (%)” value is 102%.
